From patent US7998460B2, “Prevention of deficits in neurogenesis with anti-inflammatory agents” (The Board of Trustees of the Leland Stanford Junior …, priority 2003, dated 2011)
Entries after “also recorded” stand apart in the source; their conditions may differ.

Columns and labels:
hippocampal neurogenesis [1] = test: Oral NSAID course and LPS challenge, hippocampal neurogenesis at day 28 in mice; assay type: in vivo, mouse; details: oral NSAID course, LPS 5 mg/kg
Experimental: Mice were started on a 16 day preventative course of oral NSAID and then challenged with a single IP injection of LPS (5 mg/kg) and then BrdU (50 mg/kg) over 6 days beginning 2 h after LPS. The mice were either perfused 28 days after LPS injection, or trained and tested in the Morris water maze.
NSAID treatment. […]

hippocampal neurogenesis [2] = test: LPS-induced transient illness, microglia and hippocampal neurogenesis in mice; assay type: in vivo, mouse
Experimental: To investigate whether an LPS challenge produces more chronic effects on neurogenesis, adult female C57BI/6 mice were injected intraperitoneally (i.p.) with 0, 5, 7.5 and 10 mg/kg of LPS and subcutaneously with sterile saline to prevent dehydration. Mice were then injected once daily over the next 6 days with the cell synthesis marker bromodeoxyuridine (BrdU; 50 mg/kg) to label dividing progenitor cells. Histology was performed on sections from mice that were perfused on Day 7 or Day 28. The number of BrdU-labeled (new) or IBA-1-labeled (monocyte/microglial) cells was estimated through hippocampal sets stereologically using enzyme substrate immunohistochemistry and light microscopy and BrdU-labeled cell phenotypes and IBA-1-labeled activation was determined using immunofluorescence and confocal microscopy.
Subjects. All mice used as subjects in this study were treated in accordance with the policies set forth by the Stanford Animal Care and Use Committee and NIH regarding the ethical use of animals for experimentation. CB57BI/6 mice (7 wks old upon arrival from -Taconic) were housed in groups of 4-5 in autoclaved shoebox cages under standard conditions and were given free access to autoclaved Prolab Mouse 3000 chow (PMI Nutrition International, St. Louis, Mo.) and autoclaved tap water. One week after arrival, vehicle- and NSAID-treated mice were given an intraperitoneal (i.p.) injection of sterile saline or lipopolysaccharide (LPS; 5 mg/kg at a concentration of 1 mg/ml isotonic saline; Sigma Aldrich, St. Louis, Mo.) to induce transient illness (Day 0) and daily subcutaneous (s.c.) isotonic saline (0.5 ml) injections (Days 0-3) to prevent illness-induced dehydration. The cell synthesis marker bromodeoxyuridine (BrdU; Sigma Aldrich, St. Louis, Mo.) was injected i.p. (50 mg/kg at a concentration of 10 mg/ml in freshly prepared isotonic saline) once per day for 6 days to label dividing cells, beginning Day 0 (2 h after LPS). The mice were anesthetized with ketamine/xylazine and killed at Days 7 or 28 (to assess hippocampal neurogenesis during illness and just before behavioral testing, respectively) or Day 80 (to measure hippocampal neurogenesis following behavioural testing) by perfusion with 4% paraformaldehyde. Brains were post-fixed overnight in perfusate, microtome sectioned at 40 μm through the hippocampus and stored in tissue cryoprotectant solution at −20° C. until processed immunohistochemically.
Histology and Immunohistochemistry. Free floating sections were immunostained as described previously using the following primary antibodies and working concentrations: rat anti-bromodeoxyuridine (1:500; Accurate, Westbury, N.J.) goat anti-doublecortin (1:500; Santa Cruz, Calif.), rabbit anti-[…] (1:2000; WAKO, Los Angeles, Calif.), rabbit anti-FA-11 (CD68; 1:200; Serotec, Raleigh, N.C.), guinea pig anti-GFAP (1:750; Harlan, Indianapolis, Ind.), rabbit anti-NG2 (1:2000; a gift from W. Stallcup), mouse anti-NeuN (1:500; Chemicon; Temeculah, Calif.). Tissue was incubated in all primary antibodies ovemight (and in anti-BrdU for 48 h) at 4° C. Phenotyping sets were incubated in minimally cross-reactive secondary IGg conjugated fluorophores (1:500; Jackson Immunoresearch, West Grove, Pa.) overnight at 4° C. and coverslipped under PVA-DABCO.
Cell Counting and Unbiased Stereology. BrdU-labeled cells were phenotyped and total BrdU-labeled and […] cell numbers stereologically estimated if they were located in the hippocampal granule cell layer proper and subgranular zone (the neurogenic zone that includes a 50 μm border between the hilus and granule cell layer). BrdU-labeled cells were phenotyped on immunofluroescent stained sections that were anatomically matched using a Zeiss 510 Meta confocal microscope using a multi-channel configuration with a 40× objective and electronic zoom of 2.3. Appropriate gain and black level was set using control sections stained with secondary antibodies alone. […]

[3] = Sickness behavior after LPS in rats; assay type: in vivo, rat; details: LPS 1 mg/Kg i.p. one time
Experimental: LPS exposure. Bacterial lipopolysaccharide (LPS, Sigma, St Louis, Mo.) was administered in sterile saline by intraperitoneal injection at a dose of 1 mg/Kg one time. This caused mild sickness behavior (decreased grooming, decreased locomotor activity, increased piloerection) for approximately 2 days, resolving by the 3rd day. The dose of LPS chosen causes mild sickness behavior in rats that resolves within 1-2 days; the dose of LPS used to induce endotoxic shock is 10-fold higher than that used in the present study.

[4] = dentate gyri, 4 weeks after LPS

**Q.** What does the source list for `COc1ccc2c(c1)c(CC(=O)O)c(C)n2C(=O)c1ccc(Cl)cc1` [indomethacin]?
**A.** effect on LPS-induced deficit in fraction of newborn cells adopting a neuronal fate (DCX and/or NeuN) by Day 28 (hippocampal neurogenesis [1]): attenuated, but did not completely reverse this deficit; also recorded: attenuated this deficit; effect on LPS-induced reduction of transition state and mature neurons (hippocampal neurogenesis [1]; Day 28): partially reversed the effects of LPS

**Q.** Which results are given for lipopolysaccharide [LPS]?
**A.** reduction in the net number of new neurons (hippocampal neurogenesis [2]; 4 weeks after LPS challenge): 45-55%; reduction of BrdU positive cells colabeled with NeuN (hippocampal neurogenesis [2]; 4 weeks after LPS challenge): ≈ 57%; reduction of BrdU-positive cells colabeled with DCX/NeuN (hippocampal neurogenesis [2]; 4 weeks after LPS challenge): ≈ 44%; total number of BrdU positive cells vs vehicle (hippocampal neurogenesis [2]; 6 and 28 d after injection): similar; activation (FA-11/CD68) intensity on IBA-1 positive cells vs vehicle (hippocampal neurogenesis [2]; [4]): 1.25 fold; total IBA-1 positive cell number vs vehicle (hippocampal neurogenesis [2]; [4]): similar; reduction of BrdU positive cells colabeled with DCX/NeuN (hippocampal neurogenesis [2]; week following LPS challenge, independent of LPS dose): ≈ 41%; duration of mild sickness behavior [3]: approximately 2 days
